Where two headings read alike, the source gives them in different places.
Key:
[1] = system: U87 GBM cell line; assay: Cell viability assay (Alamar Blue, 7 days), U87; format: cell-based, human
Procedure: (§1) Cell Culture and Reagents. All cell lines were grown in a 37° C., 5% CO2, humidified environment, in media containing 1% penicillin/streptomycin. Stable cell line generation of GL261 MGMT+ was purchased from Creative Biogene. Cell culture conditions are as follows: cell lines U87, T98G, and RKO were grown in EMEM with 10% FBS. D54, GL261, GL261 MGMT+, and U118MG cell lines were grown in DMEM with 10% FBS. HCT116 cells were grown in RMPI with 10% FBS. D341 Med cells were grown in EMEM with 20% FBS. Temozolomide (TMZ) was purchased from AK Scientific. TMZ analogues were synthesized as described below. Compounds were dissolved in DMSO (1% final concentration, Fisher Chemical) for cell culture studies.
(§2) Cell Viability Assays. Cells were harvested, seeded in a 96-well plate and allowed to adhere. After three hours, compound was added to each well in DMSO (1% final concentration). Cells were incubated for seven days (unless otherwise noted) before viability was assessed by the Alamar Blue assay. Raptinal (20 μM) was used as a dead control.
Plated 1500 c/w for GL261; 600 c/w for U87; 600 c/w for U118MG; 1500 c/w for GL261 MGMT+ Incubated ovn and added 1 μL of compound in DMSO the next day. Incubated over 7 days; added Alamar Blue to assess cell viability and used 10 μM Raptinal as dead control. Error is SEM, n=3.

[2] = system: T98G GBM cell line; assay: Cell viability assay (Alamar Blue, 7 days), T98G; format: cell-based, human
Procedure: as §1, §2

[3] = Hydrolytic stability studies; format: physicochemical; details: PBS; for Hydrolytic stability: percentage of prodrug remaining after 2 hours: pH 7.4, 37° C., HPLC; for half-life at 100 μM: 37° C.
Procedure: Hydrolytic Stability Studies. Compound (100 μM) was incubated at 37° C. in PBS at pH 7.4 (unless otherwise noted). At the indicated time point, an aliquot was collected and analyzed by HPLC. Compound peaks were integrated and compared to the integration at to calculate the percentage of prodrug remaining.

[4] = Hepatic metabolism: stability in mouse liver microsomes; format: in vitro ADME; details: for Stability (2 h, with MLM): percentage remaining relative to t0, mouse liver microsomes, SEM, n ≥ 2; for Stability (2 h, no MLM): percentage remaining, microsomes replaced with PBS
[5] = system: linearized pBR322 plasmid DNA; details: purified linearized DNA, 15 hours at 37° C.
[6] = in vivo; details: CD-1 IGS, mouse, brain and serum, iv, 25 mg/kg
[7] = system: expanded panel of GBM cell lines with or without MGMT expression; assay: Cell viability in expanded panel of GBM cell lines; format: cell-based; details: 168 h; all cell lines, with or without MGMT; 7 days; read-out: IC50 values across expanded panel of GBM cell lines
Procedure: FIG. 1A-C. Selection and evaluation of MGMT-independent imidazotetrazines. (A) IC50 values (M, 7 days) of TMZ and compound 10 in an expanded panel of GBM cell lines. Cell viability was assessed via the Alamar Blue assay, n≥3, error is SEM. (B) Hydrolytic stability of TMZ at pH 7, 7.4, and 8. Percentage of prodrug remaining was quantified by HPLC, n≥2. (C) Hydrolytic stability of compound 10 at pH 7, 7.4, and 8. Percentage of prodrug remaining was quantified by HPLC, n≥2.
FIG. 2A-F. (A) 7 day IC50 values (M) of compound 10 and CPZ in an expanded panel of GBM cell lines. Cell viability was assessed via the Alamar Blue assay, n≥3, error is SEM. (B-E) 7 day dose-response curves of TMZ and CPZ in cell lines with variable MGMT and MMR status. Error is SEM, n≥3. (F) Killing kinetics of CPZ compared to TMZ in the U87 cell line. Cells were treated with compound once and viability was assessed every 24 hours via Alamar Blue assay. Error is SEM, n≥2.
as §2

[8] = Homo sapiens, 168 h, MGMT (−) MMR (+), 600 c/w, SEM, n=3, read-out: Activity, U87
[9] = Homo sapiens, T98G, 168 h, MGMT (+) MMR (+), read-out: Activity, T98G
[10] = Homo sapiens, 168 h, MGMT (−), Alamar Blue, error SEM, n ≥ 3, read-out: Seven-day IC50, U87
[11] = Homo sapiens, T98G, 168 h, MGMT (+), Alamar Blue, error SEM, n ≥ 3, read-out: Seven-day IC50, T98G
[12] = MGMT (+), Alamar Blue, error SEM, n ≥ 3, read-out: Seven-day IC50, T98G

| SMILES | IC50 [1, 10] [µM] | IC50 [2, 11] [µM] | also measured |
| --- | --- | --- | --- |
| C#CCn1nnc2c(C(=O)NC)ncn2c1=O [Compound 16, N-methyl-4-oxo-3-(prop-2-yn-1-yl)-3,4-dihydroimidazo[5,1-d][1,2,3,5]tetrazine-8-carboxamide] |  |  | IC50 [1, 8]: 40 ± 20 µM; IC50 [2, 9]: 87 ± 7 µM; Hydrolytic stability: percentage of prodrug remaining after 2 hours [3]: 18% |
| CN(C)C(=O)c1ncn2c(=O)n(C)nnc12 [N,N-DiMe-TMZ, reference compound] |  |  | Stability (2 h, with MLM) [4]: 81 ± 2%; Stability (2 h, no MLM) [4]: 92 ± 3% |
| CC#CCn1nnc2c(C(N)=O)ncn2c1=O [But] |  |  | Stability (2 h, with MLM) [4]: 89 ± 3%; Stability (2 h, no MLM) [4]: 85 ± 1% |
| NC(=O)c1ncn2c(=O)[nH]nnc12 [Compound 1, 4-oxo-3,4-dihydroimidazo[5,1-d][1,2,3,5]tetrazine-8-carboxamide] | > 1000 | > 1000 |  |
| NC(=O)c1ncn2c(=O)n(COc3ccccc3)nnc12 [Compound 11, 4-oxo-3-(phenoxymethyl)-3,4-dihydroimidazo[5,1-d][1,2,3,5]tetrazine-8-carboxamide] | < 40 | < 40 | IC50 ([1]; MGMT (−), Alamar Blue, error SEM, n ≥ 3, read-out: Seven-day IC50, U87): 21 ± 3 µM; IC50 [2, 12]: 35 ± 1 µM |
| C=CCn1nnc2c(C(N)=O)ncn2c1=O [Compound 9, 3-allyl-4-oxo-3,4-dihydroimidazo[5,1-d][1,2,3,5]tetrazine-8-carboxamide] | 220 ± 60 | 320 ± 10 | DNA alkylation (streaking on gel) [5]: No evidence of DNA alkylation |
| C#CCn1nnc2c(C(=O)N(C)C)ncn2c1=O [Compound 17, N,N-dimethyl-4-oxo-3-(prop-2-yn-1-yl)-3,4-dihydroimidazo[5,1-d][1,2,3,5]tetrazine-8-carboxamide] |  |  | IC50 [1, 8]: 20 ± 5 µM; IC50 [2, 9]: 40 ± 5 µM; Hydrolytic stability: percentage of prodrug remaining after 2 hours [3]: 27% |
| CCCn1nnc2c(C(N)=O)ncn2c1=O [Compound 3, 4-oxo-3-propyl-3,4-dihydroimidazo[5,1-d][1,2,3,5]tetrazine-8-carboxamide] | > 1000 | > 1000 | DNA alkylation (streaking on gel) [5]: No evidence of DNA alkylation |
| NC(=O)c1ncn2c(=O)n(CNC(=O)c3ccccc3)nnc12 [Compound 12, 3-(benzamidomethyl)-4-oxo-3,4-dihydroimidazo[5,1-d][1,2,3,5]tetrazine-8-carboxamide] | 240 ± 20 | 580 ± 100 |  |
| CC#CCn1nnc2c(C(N)=O)ncn2c1=O [Compound 19, 3-(but-2-yn-1-yl)-4-oxo-3,4-dihydroimidazo[5,1-d][1,2,3,5]tetrazine-8-carboxamide] | 37 | 110 | DNA alkylation (streaking on gel) [5]: Trace DNA alkylation; DNA interstrand cross-linking [5]: definitively absent |
| C=CC=O [acrolein, reference compound] |  |  | DNA alkylation (streaking on gel) [5]: no evidence of alkylation; DNA interstrand cross-linking [5]: interstrand cross-linking |
| COc1ccc(-n2nnc3c(C(N)=O)ncn3c2=O)cc1 [Compound 7, 3-(4-methoxyphenyl)-4-oxo-3,4-dihydroimidazo[5,1-d][1,2,3,S]tetrazine-8-carboxamide] |  | < 100 | IC50 [2, 12]: 60 ± 10 µM |

Further lines, with some results ahead:

| IC50 [1, 10] [µM] | SMILES | IC50 [2, 11] [µM] | also measured |
| --- | --- | --- | --- |
| > 1000 | CC(C)(C)Cn1nnc2c(C(N)=O)ncn2c1=O [Compound 6, 3-neopentyl-4-oxo-3,4-dihydroimidazo[5,1-d][1,2,3,5]tetrazine-8-carboxamide] | > 1000 |  |
| 570 ± 30 | CC(C)(C)n1nnc2c(C(N)=O)ncn2c1=O [Compound 5, 3-(tert-butyl)-4-oxo-3,4-dihydroimidazo[5,1-d][1,2,3,5]tetrazine-8-carboxamide] | > 1000 |  |
| 30 | NC(=O)c1ncn2c(=O)n(CCCl)nnc12 [MTZ, 3-(2-chloroethyl)-4-oxo-3,4-dihydroimidazo[5,1-d][1,2,3,5]tetrazine-8-carboxamide, reference compound] | 85 ± 9 |  |
| 29 | C#CCn1nnc2c(C(N)=O)ncn2c1=O [Compound 10, 4-oxo-3-(prop-2-yn-1-yl)-3,4-dihydroimidazo[5,1-d][1,2,3,5]tetrazine-8-carboxamide] | 77 | Kp at 15 min [6]: 0.06 ± 0.01; IC50 [7]: < 100 µM; half-life at 100 μM ([3]; pH 7, calculated from hydrolytic stability data, read-out: Half-life, pH 7): 97 ± 5 min; Hydrolytic stability: percentage of prodrug remaining after 2 hours [3]: 8%; half-life at 100 μM ([3]; pH 7.4, calculated from hydrolytic stability data, read-out: Half-life, pH 7.4): ~30 min; half-life at 100 μM ([3]; pH 8, calculated from hydrolytic stability data, read-out: Half-life, pH 8): 15 ± 1 min |
| 470 | CCn1nnc2c(C(N)=O)ncn2c1=O [Compound 2, 3-ethyl-4-oxo-3,4-dihydroimidazo[5,1-d][1,2,3,5]tetrazine-8-carboxamide] | > 1000 |  |
| > 1000 | CC(C)n1nnc2c(C(N)=O)ncn2c1=O [Compound 4, 3-isopropyl-4-oxo-3,4-dihydroimidazo[5,1-d][1,2,3,5]tetrazine-8-carboxamide] | > 1000 |  |

— patent publication US20250129083A1, “IMIDAZOTETRAZINE COMPOUNDS AND TREATMENT OF TMZ-RESISTANT CANCERS” (THE BOARD OF TRUSTEES OF THE UNIVERSITY OF ILLINOIS, priority 2022, published 2025)
